Test results from patent publication US9339509B2, “Methods of use to orally and topically treat acne and other skin conditions by administering a 19-nor containing vitamin D analog with or without a retinoid” (Wisconsin Alumni Research Foundation, priority 2006, dated 2016).
Entries after “also recorded” stand apart in the source; their conditions may differ.

Key:
[1] = system: Rhino mouse; assay: Comedolytic effect of topical application to the Rhino mouse (comedone area); type: in vivo; details: for response vs control in vivo at 0.217 µmol/kg: dose 217 nmol/kg; for comedone area relative to vehicle-treated group (FIG. 8, 9, 10): 217 nmole/kgBW/day; for response vs control in vivo at 0.069 µmol/kg: dose 69 nmol/kg; for comedone area (FIG. 7, FIG. 10): 69 nmole/kgBW/day; for comedone area relative to vehicle-treated group (FIG. 11): 72 h after final dose
Source text: (§1) Rhino mice were used to topically and orally test the compounds and compositions of the invention. The Rhino mouse is a well-established animal model used to study the comedolytic effects of anti-acne agents including retinoids. (See Boulcier M et al., Experimental Models in Skin Pharmacology, 1990, In Pharmacological Reviews 42:127-15). Mirshahpanah and Maibach, 2007, Cutaneous and Ocular Toxicology 26:195-202). The Rhino mouse model was used to study the therapeutic potential of 2-Methylene-19-nor-20(S)-1α-hydroxy-bishomopregnacalciferol (2MBisP), 19-Nor-26,27-dimethylene-20(S)-2-methylene-1α,25-dihydroxyvitamin D3 (CAGE-3), NEL, 24R-2MD2, Vit-III (17-20E), 2MPregna, 2MP, 20R-2MbisP, 2MTrisP, FF-44, FF-55, HPBS, VD-03 and atRA.
(§2) Animals and dose administration. Rhino mice 6-10 weeks old were dosed via the oral and/or topical route. In the majority of studies, the mice were dosed daily. In one topical study, the efficacy of daily versus intermittent (Monday/Wednesday/Friday) dosing was compared. The mice were weighed three times per week and doses were adjusted weekly based on body weight. The topical formulations were applied to the back of the animal in a maximum volume of 110 μL. The topical formulations were made by mixing the APIs with a topical carrier comprising 70 vol % propylene glycol and 30 vol % ethanol or 30 vol % propylene glycol and 70 vol % ethanol, as indicated. The topical vehicle control was the vehicle carrier solution matched to the formulation containing API and vehicle carrier.
(§3) The oral formulation was made by mixing the APIs with Wesson® soybean oil or NeoBee® oil. The oral dose was delivered to the back of the mouth of each mouse. Mice were sacrificed 4 hours after the final oral dose and 72 hours after the final topical dose. At sacrifice, the dorsal skin was collected for histological studies.
(§4) Comedolytic effect. The extent of the comedolytic effect (i.e., efficacy) was assessed by measuring the average area of the comedones, whereby the smaller the area, the larger the effect. The comedone area was determined by histological analysis of tissue sections based on a method developed in our lab (see FIG. 2). Skin was fixed overnight in 4% paraformaldehyde at 4 deg. C. with gentle agitation and dehydrated the next day into 100% methanol. Samples were embedded in paraffin and a total of nine 10 micron sections 150 microns apart were prepared from each Rhino mouse. Five of the nine sections were digitally imaged (6× magnification) for comedone analysis using Metamorph Imaging Software (trace function). The perimeter of each comedone on the images taken from the 5 sections was then traced using a Wacom Intuos 3 Graphics Tablet interfaced with the software. The number of pixels comprising the area of each individual comedone was obtained and transferred to an Excel spreadsheet, and the mean number of pixels per comedone was obtained for each Rhino mouse. For comedones that were completely healed (area=0) a pixel value approaching 0 (<10) was entered into the spreadsheet. The individual comedone area average for each mouse was then used to calculate the treatment group mean. Results in the figures are expressed in terms of mean±standard error of the mean.
Preparation of topical formulations containing 2MBisP, CAGE-3, 24R-2MD2, VitIII (17-20E), NEL, VD-03, 2MPregna, 2MP, 20R-2MBisP, 2MTrisP, FF-44, FF-55, and HPBS. Separate concentrated ethanolic stocks of 2MBisP, CAGE-3, 24R-2MD2, VitIII (17-20E) and NEL were diluted to a final concentration containing 70 vol % propylene glycol and 30 vol % ethanol or 30 vol % propylene glycol and 70 vol % ethanol as the excipient carrier system. The mixture was thoroughly mixed. The topical dosing formulation delivered the desired dosing amount of drug on a per kilogram body weight basis. A dose ranging from 100-110 μL in volume was administered to the back of the mouse. An average weight of 24 or 30 g/mouse was assumed in dose volume calculations. […]

[2] = system: Rhino mouse; assay: Comedolytic effect of oral administration to the Rhino mouse (comedone area); type: in vivo; details: oral daily 24 days
Source text: as §1, §2, §3, §4
Preparation of oral dosing solutions containing 2MBisP, CAGE-3, 24R-2MD2, VitIII (17-20E) and NEL. Separate concentrated stocks of 2MBisP, CAGE-3, 24R-2MD2, VitIII (17-20E) and NEL were obtained in ethanol. The concentration was determined spectrophotometrically using a molar extinction coefficient=42,000 and a λmax=252.7. […] The final dose was delivered in ≦50 μL of oil.
Preparation of oral atRA dosing formulation. A concentrated stock solution containing atRA was prepared in dichloromethane. The atRA concentrated stock solution was diluted into ethanol. The concentration of atRA in that diluted stock solution was determined spectrophotometrically, whereby the molar extinction coefficient=45,200 and λmax=350. The purity of atRA was determined to be >99% by HPLC. […]

[3] = Mus musculus, 504 h, daily topical ca. 3 weeks, 70 vol % ethanol/30 vol % propylene glycol, mean ± SEM, read-out: Comedone Area (% Vehicle)
[4] = daily topical 3 weeks, 70 vol % ethanol/30 vol % propylene glycol
[5] = topical 217 nmole/kgBW daily (total of 22 doses), 70 vol % ethanol/30 vol % propylene glycol
[6] = topical 217 nmole/kgBW intermittently Monday, Wednesday, Friday (total of 10 doses), 70 vol % ethanol/30 vol % propylene glycol

C=C1[C@H](O)CC(=C/C=C2\CCCC3(C)C(CC)CCC23)C[C@H]1O (stereo partly drawn) [2MPregna, 2-methylene-19-nor-1α-hydroxy-pregnacalciferol]
response vs control in vivo at 0.217 µmol/kg [1, 3]: 63 ± 14% | comedone area relative to vehicle-treated group (FIG. 8, 9, 10) [1, 4]: significant reduction in comedone area

C=C1[C@H](O)CC(=C/C=C2\CCCC3(C)C2CCC3C(C)C)C[C@H]1O (stereo partly drawn) [2MP, 1α-hydroxy-2-methylene-19-nor-homopregnacalciferol]
response vs control in vivo at 0.217 µmol/kg [1, 3]: 92 ± 20% | comedone area relative to vehicle-treated group (FIG. 8, 9, 10) [1, 4]: smaller reduction in comedone area

C=C1[C@H](O)CC(=C/C=C2\CCC[C@]3(C)/C(=C(\C)CCCC(C)(C)O)CC[C@@H]23)C[C@H]1O [VitIII (17-20E), 2-methylene-1α,25-dihydroxy-(17E)-17(20)-dehydro-19-nor-vitamin D3]
comedone area (FIG. 13) ([2]; 24 nmole/kgBW/day): no significant reduction in comedone area | response vs control in vivo at 0.024 µmol/kg ([1]; Mus musculus, 504 h, daily topical ca. 3 weeks, 70 vol % ethanol/30 vol % propylene glycol, dose 24 nmol/kg, mean ± SEM, read-out: Comedone Area (% Vehicle)): 116 ± 15%

C=C1[C@H](O)CC(=C/C=C2\CCC[C@@]3(C)C2CCC3[C@H](C)CC(F)F)C[C@H]1O (stereo partly drawn) [FF-44, 2-methylene-(20R)-23,23-difluoro-1α-hydroxy-19-nor-bishomopregnacalciferol]
response vs control in vivo at 0.069 µmol/kg [1, 3]: 104 ± 20% | response vs control in vivo at 0.217 µmol/kg [1, 3]: 47 ± 12% | comedone area (FIG. 7, FIG. 10) [1, 4]: insignificant effect | comedone area relative to vehicle-treated group (FIG. 8, 9, 10) [1, 4]: significant reduction in comedone area | comedone area relative to vehicle-treated group (FIG. 11) [1, 5]: significant reduction in comedone area | comedone area relative to vehicle-treated group (FIG. 11) [1, 6]: significant reduction in comedone area

2-(3′hydroxypropyl-1′,2′-idene)-19,23,24-trinor-(20S)-1α-hydroxyvitamin D3 [HPBS]
Comedone Area (% Vehicle) ([1]; daily topical ca. 3 weeks, 70 vol % ethanol/30 vol % propylene glycol, dose 217 to 122 nmol/kg (changed on day 3 or day 10), mean ± SEM): 74 ± 10 % Vehicle

C=C1[C@H](O)CC(=C/C=C2\CCC[C@]3(C)C([C@H](C)/C=C/[C@@H](C)C(C)(C)O)CC[C@@H]23)C[C@H]1O (stereo partly drawn) [24R-2MD2, 2-methylene-19-nor-(24R)-1α,25-dihydroxyvitamin D2]
comedone area (FIG. 13) ([2]; 2.3 nmole/kgBW/day): no significant reduction in comedone area | response vs control in vivo at 0.0023 µmol/kg ([1]; Mus musculus, 504 h, daily topical ca. 3 weeks, 70 vol % ethanol/30 vol % propylene glycol, dose 2.3 nmol/kg, mean ± SEM, read-out: Comedone Area (% Vehicle)): 176 ± 55%

C=C1[C@H](O)CC(=C/C=C2\CCC[C@@]3(C)C2CCC3[C@@H](C)CC(F)F)C[C@H]1O (stereo partly drawn) [FF-55, 2-methylene-(20S)-23,23-difluoro-1α-hydroxy-19-nor-bishomopregnancalciferol]
response vs control in vivo at 0.069 µmol/kg [1, 3]: 108 ± 35% | response vs control in vivo at 0.217 µmol/kg [1, 3]: 53 ± 8% | comedone area (FIG. 7, FIG. 10) [1, 4]: insignificant effect | comedone area relative to vehicle-treated group (FIG. 8, 9, 10) [1, 4]: significant reduction in comedone area | comedone area relative to vehicle-treated group (FIG. 11) [1, 5]: significant reduction in comedone area | comedone area relative to vehicle-treated group (FIG. 11) [1, 6]: significant reduction in comedone area

C=C1[C@H](O)CC(=C/C=C2\CCC[C@@]3(C)C2CCC3[C@H](C)CC)C[C@H]1O (stereo partly drawn) [20R-2MBisP, (20R)-1α-hydroxy-2-methylene-19-nor-bishomopregnacalciferol]
response vs control in vivo at 0.217 µmol/kg [1, 3]: 136 ± 17% | response vs control in vivo at 0.694 µmol/kg ([1]; Mus musculus, 504 h, daily topical ca. 3 weeks, 70 vol % ethanol/30 vol % propylene glycol, dose 694 nmol/kg, mean ± SEM, read-out: Comedone Area (% Vehicle)): 45 ± 6% | response vs control in vivo at 2.187 µmol/kg ([1]; Mus musculus, 504 h, daily topical ca. 3 weeks, 70 vol % ethanol/30 vol % propylene glycol, dose 2187 nmol/kg, mean ± SEM, read-out: Comedone Area (% Vehicle)): 17 ± 3% | comedone area relative to vehicle-treated group (FIG. 8, 9, 10) [1, 4]: insignificant effect | comedone area relative to vehicle-treated group (FIG. 8) ([1]; daily topical 3 weeks, 70 vol % ethanol/30 vol % propylene glycol, 694 nmole/kgBW/day): significant reduction

C=C1[C@H](O)CC(=C/C=C2\CCC[C@]3(C)C([C@H](C)CCC[C@H](C)O)CC[C@@H]23)C[C@H]1O (stereo partly drawn) [NEL, 2-methylene-(20R,25S)-19,26-dinor-1α,25-dihydroxyvitamin D3]
comedone area (FIG. 14) ([2]; 7.5 nmole/kgBW/day): no significant reduction in comedone area | comedone area (FIG. 14) ([2]; 25 nmole/kgBW/day): no significant reduction in comedone area | response vs control in vivo at 0.0075 µmol/kg ([1]; Mus musculus, 504 h, daily topical ca. 3 weeks, 70 vol % ethanol/30 vol % propylene glycol, dose 7.5 nmol/kg, mean ± SEM, read-out: Comedone Area (% Vehicle)): 156 ± 34% | response vs control in vivo at 0.025 µmol/kg ([1]; Mus musculus, 504 h, daily topical ca. 3 weeks, 70 vol % ethanol/30 vol % propylene glycol, dose 25 nmol/kg, mean ± SEM, read-out: Comedone Area (% Vehicle)): 145 ± 24%

C=C1[C@H](O)CC(=C/C=C2\CCC[C@@H]3C([C@@H](C)CCCC(C)(C)O)CC[C@@H]23)C[C@H]1O (stereo partly drawn) [VD-03, 2-methylene-18,19-dinor-(20S)-1α,25-dihydroxyvitamin D3]
response vs control in vivo at 0.00062 µmol/kg ([1]; Mus musculus, 504 h, daily topical ca. 3 weeks, 70 vol % ethanol/30 vol % propylene glycol, dose 0.62 nmol/kg, mean ± SEM, read-out: Comedone Area (% Vehicle)): 90 ± 14%

C=C1[C@H](O)CC(=C/C=C2\CCC[C@@]3(C)C2CCC3[C@@H](C)CCC)C[C@H]1O (stereo partly drawn) [2MTrisP, 2-methylene-(20S)-19-nor-1α-hydroxy-trishomopregnacalciferol]
response vs control in vivo at 0.217 µmol/kg [1, 3]: 66 ± 9% | comedone area relative to vehicle-treated group (FIG. 8, 9, 10) [1, 4]: significant reduction in comedone area

C=C1[C@H](O)CC(=C/C=C2\CCC[C@]3(C)[C@@H]([C@@H](C)CCCC4(O)CCCC4)CC[C@@H]23)C[C@H]1O [CAGE-3, 19-nor-26,27-dimethylene-20(S)-2-methylene-1α,25-dihydroxyvitamin D3]
comedone area (FIG. 12) ([2]; 68 pmole/kgBW/day): reduction in the comedone area | comedone area vs vehicle control (FIG. 3, FIG. 4) ([1]; topical 3 weeks, 30 vol % ethanol/70 vol % propylene glycol, 0.9 ng/day (ca. 100 pmole/kgBW/day), reduced to 0.45 ng/day on day 10 and 0.22 ng/day on day 19): reduction in the comedone area; also recorded: reduced comedone area

C=C1/C(=C\C=C2/CCC[C@]3(C)[C@@H]([C@H](C)CCCC(C)(C)O)CC[C@@H]23)C[C@@H](O)C[C@@H]1O [1,25(OH)2D3, 1,25-DIHYDROXYVITAMIN D3, reference compound]
response vs control in vivo at 0.006 µmol/kg ([1]; Mus musculus, 504 h, daily topical ca. 3 weeks, 70 vol % ethanol/30 vol % propylene glycol, dose 6.0 nmol/kg, mean ± SEM, read-out: Comedone Area (% Vehicle)): 187 ± 30%
